Test results published in US20210403485A1, “PYRAZOLOPYRIMIDINE DERIVATIVE AS SELECTIVE TRK INHIBITOR” (SHANDONG LUYE PHARMACEUTICAL CO., LTD., priority 2018, published 2021).

How the values were obtained:
TrkA = target: T1, TrkA (Homo sapiens, UniProt P04629); experiment: Kinase inhibitory activity (33P-ATP, filtration-binding method, Reaction Biology Corp.); type: biochemical; conditions: read-out: Half maximal inhibitory concentration IC50 for kinases, TrkA
T1 construct: purchased Reaction Biology Corp
Procedure: (§1) The mixture was incubated at room temperature for 20 minutes, added with ^33P-ATP at a certain concentration to start the reaction, and then incubated at room temperature for 120 minutes. Finally, the radioactivity of the reactant was detected by the filtration-binding method. The final kinase activity was expressed as the ratio of the remaining kinase activity in the test sample to the kinase activity of the DMSO control. The dose-response curves were fitted and IC50 values were calculated by GraphPad software.

ALK = target: T2, ALK (Homo sapiens, UniProt Q9UM73); experiment: as above; type: biochemical; conditions: read-out: Half maximal inhibitory concentration IC50 for kinases, ALK
T2 construct: purchased Reaction Biology Corp
Procedure: as §1

Ros1 = target: T3, Ros1 (Homo sapiens, UniProt P08922); experiment: as above; type: biochemical; conditions: read-out: Half maximal inhibitory concentration IC50 for kinases, Ros1
T3 construct: purchased Reaction Biology Corp
Procedure: as §1

TrkA-G595R = target: T4, TrkA-G595R (Homo sapiens, UniProt P04629, G595R); experiment: as above; type: biochemical; conditions: read-out: Half maximal inhibitory concentration IC50 for kinases, TrkA-G595R
T4 construct: purchased Reaction Biology Corp
Procedure: as §1

TrkA-G667C = target: T5, TrkA-G667C (Homo sapiens, UniProt P04629, G667C); experiment: as above; type: biochemical; conditions: read-out: Half maximal inhibitory concentration IC50 for kinases, TrkA-G667C
T5 construct: purchased Reaction Biology Corp
Procedure: as §1

TrkC = target: T6, TrkC (Homo sapiens, UniProt Q16288); experiment: as above; type: biochemical; conditions: read-out: Half maximal inhibitory concentration IC50 for kinases, TrkC
T6 construct: purchased Reaction Biology Corp
Procedure: as §1

Ba/F3 LMNA-NTRK1-WT = target: T7, Ba/F3 LMNA-NTRK1-WT (Homo sapiens, UniProt P04629); experiment: Inhibitory activity against cell proliferation (CellTiter-Glo, 72 hours); type: cell-based; conditions: read-out: Half maximal inhibitory concentration IC50 of cells, Ba/F3 LMNA-NTRK1-WT
T7 construct: fused on or other part: N-terminal part of LMNA as fusion partner (part of the key); P02545 (Prelamin-A/C)
Procedure: (§2) Adenosine Triphosphate (ATP) is an energy carrier commonly used in various life activities in nature, and is the minimum unit for energy storage and transfer. The CellTiter-Glo™ cell viability assay kit uses luciferase as an assay agent, which requires the involvement of ATP in luminescence. The CellTiter-Glo™ reagent is added into cell culture medium to measure the luminescence value. The luminescence signal is directly proportional to the amount of ATP in the system, and the ATP is positively correlated with the number of viable cells. Therefore, the proliferation of cells can be detected by detecting the ATP content using the CellTiter-Glo kit.
(§3) a) Cells in the logarithmic growth phase were collected and counted using a […]. The cell viability was detected by the trypan blue exclusion method, and the cell viability was kept over 90%.
(§4) b) The cell concentration was adjusted; 90 μL of the cell suspension was added to a 96-well plate.
(§5) a) A 10-fold compound solution was prepared, with the highest concentration being 10 μM (a total of 9 concentrations, 3-fold dilution). 10 μL of compound solution was added to each well of a 96-well plate inoculated with cells, and three duplicate wells were set for each compound concentration.
(§6) a) The CTG reagent was thawed and the cell plate was equilibrated to room temperature for 30 minutes.
(§7) b) An equal volume of CTG solution was added to each well.
(§8) c) The plate was shaken on an orbital shaker for 5 minutes to lyse the cells.
(§9) d) The cell plate was placed at room temperature for 20 minutes to stabilize the luminescence signal.
(§10) e) The luminescence value was read.
(§11) The data were analyzed using GraphPad Prism 5.0 software, fitted with nonlinear S-curve regression to give dose-response curves, and IC50 values were calculated therefrom.

Ba/F3 SLC34A2-ROS1-WT = target: T8, Ba/F3 SLC34A2-ROS1-WT (Homo sapiens, UniProt P08922); experiment: as above; type: cell-based; conditions: read-out: Half maximal inhibitory concentration IC50 of cells, Ba/F3 SLC34A2-ROS1-WT
T8 construct: fused on or other part: N-terminal part of SLC34A2 as fusion partner (part of the key); O95436 (Sodium-dependent phosphate transport protein 2B)
Procedure: as §2, §3, §4, §5, §6, §7, §8, §9, §10, §11

BaF3 LMNA-NTRK1-G595R = target: T9, BaF3 LMNA-NTRK1-G595R (Homo sapiens, UniProt P04629, G595R, cells depend on it); experiment: as above; type: cell-based; conditions: read-out: Half maximal inhibitory concentration IC50 of cells, BaF3 LMNA-NTRK1-G595R
T9 construct: fused on or other part: N-terminal part of LMNA as fusion partner (part of the key); P02545 (Prelamin-A/C)
Procedure: as §2, §3, §4, §5, §6, §7, §8, §9, §10, §11

BaF3 ETV6-NTRK3-G623R = target: T10, BaF3 ETV6-NTRK3-G623R (Homo sapiens, UniProt Q16288, G623R, cells depend on it); experiment: as above; type: cell-based; conditions: read-out: Half maximal inhibitory concentration IC50 of cells, BaF3 ETV6-NTRK3-G623R
T10 construct: fused on or other part: N-terminal part of ETV6 (TEL) as fusion partner (part of the key); P41212 (Transcription factor ETV6)
Procedure: as §2, with “kit. In this test, the cell lines used are Ba/F3 LMNA-NTRK1-WT, Ba/F3 LMNA-NTRK1-F589L, BaF3 LMNA-NTRK1-G595R, BaF3 LMNA-NTRK1-G667A, BaF3 ETV6-NTRK3-WT, BaF3 ETV6-NTRK3-G623R, and Ba/F3 SLC34A2-ROS1-WT stable cell strains, 5000 cells/well.” for “kit.”
as §3, §4
c) Cells in the 96-well plate were incubated overnight at 37° C. with 5% CO2 and 95% humidity.
as §5
b) The cells in the 96-well plate added with compound were incubated for 72 hours at 37° C. with 5% CO2 and 95% humidity, followed by the CTG (CellTiter-Glo) analysis.
as §6, §7, §8, §9, §10, §11

T1 sequence (P04629 33-796): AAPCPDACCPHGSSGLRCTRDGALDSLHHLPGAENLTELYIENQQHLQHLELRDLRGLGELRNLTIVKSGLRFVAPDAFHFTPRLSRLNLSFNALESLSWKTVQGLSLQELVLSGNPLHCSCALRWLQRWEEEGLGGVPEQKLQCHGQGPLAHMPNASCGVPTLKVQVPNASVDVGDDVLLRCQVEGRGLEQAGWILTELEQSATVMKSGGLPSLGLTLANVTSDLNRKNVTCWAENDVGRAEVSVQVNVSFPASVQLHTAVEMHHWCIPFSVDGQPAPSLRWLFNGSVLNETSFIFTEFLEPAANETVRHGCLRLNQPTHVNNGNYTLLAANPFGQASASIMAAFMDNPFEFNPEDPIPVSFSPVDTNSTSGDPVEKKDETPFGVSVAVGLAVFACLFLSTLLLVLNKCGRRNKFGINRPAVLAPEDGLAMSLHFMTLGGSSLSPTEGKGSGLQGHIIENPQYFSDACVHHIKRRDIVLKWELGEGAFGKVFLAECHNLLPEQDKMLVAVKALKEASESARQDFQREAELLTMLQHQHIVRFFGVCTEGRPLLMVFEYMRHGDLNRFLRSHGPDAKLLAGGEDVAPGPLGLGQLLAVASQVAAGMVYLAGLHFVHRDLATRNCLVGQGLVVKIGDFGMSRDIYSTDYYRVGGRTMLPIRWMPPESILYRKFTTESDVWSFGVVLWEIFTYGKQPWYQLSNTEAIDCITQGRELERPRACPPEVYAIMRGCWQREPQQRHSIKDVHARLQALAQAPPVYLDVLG
T4 sequence (P04629 33-796 G595R): as the sequence (P04629 33-796) above, with G563R counted along it
T2 sequence (Q9UM73 19-1620): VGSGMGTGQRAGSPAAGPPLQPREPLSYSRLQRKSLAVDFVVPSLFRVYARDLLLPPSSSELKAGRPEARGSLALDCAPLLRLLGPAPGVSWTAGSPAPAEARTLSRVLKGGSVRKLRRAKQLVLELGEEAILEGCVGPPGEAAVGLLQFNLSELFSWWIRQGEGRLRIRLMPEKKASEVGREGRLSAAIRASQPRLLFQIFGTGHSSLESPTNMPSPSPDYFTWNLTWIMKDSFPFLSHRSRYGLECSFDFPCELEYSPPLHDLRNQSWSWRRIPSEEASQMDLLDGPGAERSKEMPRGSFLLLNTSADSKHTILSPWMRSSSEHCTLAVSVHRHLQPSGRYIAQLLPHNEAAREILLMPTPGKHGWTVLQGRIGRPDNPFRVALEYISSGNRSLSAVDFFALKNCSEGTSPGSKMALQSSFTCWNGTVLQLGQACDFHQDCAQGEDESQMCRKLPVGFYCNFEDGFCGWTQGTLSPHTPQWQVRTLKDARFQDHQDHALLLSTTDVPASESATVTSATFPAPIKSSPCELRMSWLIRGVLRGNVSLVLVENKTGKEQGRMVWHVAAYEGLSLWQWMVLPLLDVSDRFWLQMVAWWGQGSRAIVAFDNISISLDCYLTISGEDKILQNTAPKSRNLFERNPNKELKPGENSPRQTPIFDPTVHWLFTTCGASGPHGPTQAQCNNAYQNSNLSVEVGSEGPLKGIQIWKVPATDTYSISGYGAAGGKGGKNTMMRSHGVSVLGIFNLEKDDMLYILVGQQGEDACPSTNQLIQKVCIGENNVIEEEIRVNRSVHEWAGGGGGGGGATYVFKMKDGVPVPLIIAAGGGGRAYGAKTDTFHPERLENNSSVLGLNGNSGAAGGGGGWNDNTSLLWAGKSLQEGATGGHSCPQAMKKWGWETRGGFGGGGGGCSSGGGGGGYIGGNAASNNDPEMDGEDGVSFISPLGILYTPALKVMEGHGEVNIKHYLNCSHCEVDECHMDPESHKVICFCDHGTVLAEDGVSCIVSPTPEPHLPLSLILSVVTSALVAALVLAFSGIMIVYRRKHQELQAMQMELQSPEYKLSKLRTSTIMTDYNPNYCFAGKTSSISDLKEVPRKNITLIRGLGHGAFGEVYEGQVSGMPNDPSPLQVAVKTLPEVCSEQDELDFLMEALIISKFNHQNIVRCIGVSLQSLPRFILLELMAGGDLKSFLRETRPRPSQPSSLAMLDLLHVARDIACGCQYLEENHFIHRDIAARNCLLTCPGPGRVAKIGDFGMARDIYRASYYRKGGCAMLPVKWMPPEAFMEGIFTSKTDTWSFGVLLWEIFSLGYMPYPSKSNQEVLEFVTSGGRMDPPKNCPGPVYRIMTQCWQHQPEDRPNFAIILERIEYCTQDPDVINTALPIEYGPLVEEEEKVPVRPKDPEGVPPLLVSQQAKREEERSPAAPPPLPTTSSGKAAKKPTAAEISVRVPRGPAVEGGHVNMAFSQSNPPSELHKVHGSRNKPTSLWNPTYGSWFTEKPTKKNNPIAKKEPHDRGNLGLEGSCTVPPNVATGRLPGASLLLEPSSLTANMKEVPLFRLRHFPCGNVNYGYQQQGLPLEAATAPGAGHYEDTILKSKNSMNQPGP
T3 sequence (P08922 28-2347): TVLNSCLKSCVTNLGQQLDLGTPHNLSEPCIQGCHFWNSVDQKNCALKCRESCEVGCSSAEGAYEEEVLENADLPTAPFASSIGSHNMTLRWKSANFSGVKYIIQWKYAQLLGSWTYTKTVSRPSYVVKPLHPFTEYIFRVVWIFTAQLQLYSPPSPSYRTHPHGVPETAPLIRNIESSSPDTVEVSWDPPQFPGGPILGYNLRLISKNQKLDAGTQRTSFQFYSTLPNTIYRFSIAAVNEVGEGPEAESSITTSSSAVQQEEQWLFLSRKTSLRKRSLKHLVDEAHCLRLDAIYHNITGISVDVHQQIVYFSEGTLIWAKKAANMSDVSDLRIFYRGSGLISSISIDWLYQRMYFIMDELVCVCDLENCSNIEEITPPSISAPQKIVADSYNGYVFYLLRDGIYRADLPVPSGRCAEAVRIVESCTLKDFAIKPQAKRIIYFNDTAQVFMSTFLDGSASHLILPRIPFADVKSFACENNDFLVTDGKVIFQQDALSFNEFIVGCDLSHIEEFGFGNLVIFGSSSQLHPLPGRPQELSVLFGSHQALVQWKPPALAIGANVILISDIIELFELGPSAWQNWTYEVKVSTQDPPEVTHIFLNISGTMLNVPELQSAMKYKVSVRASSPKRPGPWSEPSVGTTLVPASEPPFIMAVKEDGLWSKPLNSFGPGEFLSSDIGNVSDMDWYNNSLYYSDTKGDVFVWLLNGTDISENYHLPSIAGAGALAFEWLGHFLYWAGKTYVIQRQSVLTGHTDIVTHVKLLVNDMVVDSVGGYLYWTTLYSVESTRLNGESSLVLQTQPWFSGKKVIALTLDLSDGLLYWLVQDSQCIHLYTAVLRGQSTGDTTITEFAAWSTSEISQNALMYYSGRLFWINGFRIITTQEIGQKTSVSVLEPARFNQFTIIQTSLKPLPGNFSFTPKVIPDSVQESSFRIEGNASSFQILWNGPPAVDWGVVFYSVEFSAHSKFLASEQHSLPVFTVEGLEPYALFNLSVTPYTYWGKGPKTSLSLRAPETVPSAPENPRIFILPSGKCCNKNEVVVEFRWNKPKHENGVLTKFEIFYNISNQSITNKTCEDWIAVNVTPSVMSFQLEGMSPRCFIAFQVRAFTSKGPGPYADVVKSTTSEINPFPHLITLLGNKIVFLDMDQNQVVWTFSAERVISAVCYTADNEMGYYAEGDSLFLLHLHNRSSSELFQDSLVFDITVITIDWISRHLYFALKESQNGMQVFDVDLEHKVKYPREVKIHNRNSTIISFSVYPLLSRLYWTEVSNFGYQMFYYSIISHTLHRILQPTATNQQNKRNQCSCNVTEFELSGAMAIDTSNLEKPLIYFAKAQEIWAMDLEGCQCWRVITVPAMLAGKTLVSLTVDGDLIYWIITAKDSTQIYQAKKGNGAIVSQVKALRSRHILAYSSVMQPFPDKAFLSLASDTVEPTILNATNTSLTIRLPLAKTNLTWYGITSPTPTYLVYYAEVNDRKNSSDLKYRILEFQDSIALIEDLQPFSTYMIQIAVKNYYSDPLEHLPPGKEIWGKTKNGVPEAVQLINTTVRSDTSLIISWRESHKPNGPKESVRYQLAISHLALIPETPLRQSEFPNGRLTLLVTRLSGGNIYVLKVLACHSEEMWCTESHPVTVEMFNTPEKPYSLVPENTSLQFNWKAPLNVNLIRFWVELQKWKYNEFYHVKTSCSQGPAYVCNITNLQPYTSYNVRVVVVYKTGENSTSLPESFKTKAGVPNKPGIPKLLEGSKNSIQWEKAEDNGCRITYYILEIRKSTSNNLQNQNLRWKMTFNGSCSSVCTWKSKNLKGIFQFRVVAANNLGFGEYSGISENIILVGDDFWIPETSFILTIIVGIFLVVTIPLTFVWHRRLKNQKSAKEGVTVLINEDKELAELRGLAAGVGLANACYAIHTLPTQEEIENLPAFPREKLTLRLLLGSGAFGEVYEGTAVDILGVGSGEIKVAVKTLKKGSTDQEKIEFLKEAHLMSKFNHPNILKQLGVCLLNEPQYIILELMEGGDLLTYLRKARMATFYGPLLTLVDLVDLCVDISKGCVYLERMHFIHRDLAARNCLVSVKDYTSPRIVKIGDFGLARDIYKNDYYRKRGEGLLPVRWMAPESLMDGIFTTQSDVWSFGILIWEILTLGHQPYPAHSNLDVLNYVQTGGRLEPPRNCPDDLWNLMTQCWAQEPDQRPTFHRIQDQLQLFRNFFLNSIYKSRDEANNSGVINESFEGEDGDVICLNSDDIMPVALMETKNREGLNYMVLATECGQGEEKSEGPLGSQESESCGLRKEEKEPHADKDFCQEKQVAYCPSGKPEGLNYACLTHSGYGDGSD
T5 sequence (P04629 33-796 G667C): as the sequence (P04629 33-796) above, with G635C counted along it

| Compound | IC50 (TrkA) | IC50 (ALK) | IC50 (Ros1) | IC50 (TrkA-G595R) | IC50 (TrkA-G667C) | IC50 (TrkC) | further results |
| --- | --- | --- | --- | --- | --- | --- | --- |
| O=C1NC2(CC2)COc2ncc(F)cc2C2COCCN2c2ccn3ncc1c3n2 (single isomer, unassigned) [WX001A] | > 1000 nM |  |  |  |  |  |  |
| O=C1NC2(CC2)COc2ccc(F)cc2C2CCCCN2c2ccn3ncc1c3n2 (single isomer, unassigned) [WX002A] | 3.2 nM | 18.5 nM | 0.2 nM | 2.1 nM | 0.7 nM | 0.2 nM | GI50 (Ba/F3 LMNA-NTRK1-WT): 0.2 nM; GI50 (Ba/F3 SLC34A2-ROS1-WT): 12.6 nM; GI50 (BaF3 LMNA-NTRK1-G595R): 0.4 nM; GI50 (BaF3 ETV6-NTRK3-G623R): 5.8 nM |
| O=C1NC2(CC2)COc2ccc(F)cc2[C@@H]2CCCCN2c2ccn3ncc1c3n2 [WX002B] | 526 nM |  |  |  |  |  |  |

Now from value to molecule, other results behind:

| IC50 (TrkA) | IC50 (ALK) | IC50 (Ros1) | IC50 (TrkA-G595R) | IC50 (TrkA-G667C) | IC50 (TrkC) | Compound | further results |
| --- | --- | --- | --- | --- | --- | --- | --- |
| 4.1 nM | > 1000 nM | 28.7 nM | 8.9 nM | 189 nM | 0.3 nM | O=C1NC2(CC2)CNc2ncc(F)cc2C2COCCN2c2ccn3ncc1c3n2 (single isomer, unassigned) [WX010A] |  |
| > 1000 nM |  |  |  |  |  | O=C1NC2(CC2)CNc2ncc(F)cc2C2COCCN2c2ccn3ncc1c3n2 (single isomer, unassigned) [WX010B] |  |
| 441 nM |  |  |  |  |  | C[C@H]1CNC(=O)c2cnn3ccc(nc23)N2CCOC[C@H]2c2cc(F)cnc2O1 [WX004A] |  |
